Laboratory results from patent publication US10265287B2, “Methods of reducing triglycerides and LDL-C” (Amarin Pharmaceuticals Ireland Limited, priority 2009, dated 2019).

Experiment: Lipid peroxide (LOOH) formation in model membranes, CHOD-iodide colorimetric assay
Assay type: biochemical
Settings: cholesterol-enriched membranes
Description: An experiment was conducted to test EPA, DHA, EPA+DHA with and without with atorvastatin in model membranes enriched with PUFAs and cholesterol at levels that reproduce disease or high CV-risk conditions (i.e. hypercholesterimia). […] EPA and DHA were tested individually at a fixed concentration of 10.0 uM or in combination at 5.65 μM and 4.35 μM (EPA and DHA, respectively), which is a mole ratio of 1.3:1. Separate and combined effects of these agents on lipid peroxide (LOOH) formation were examined at cholesterol-to-phospholipid (C/P) mole ratios of 0.5:1, 1.0:1 and 1.5:1. Levels of lipid hydroperoxides were also measured for EPA, DPH and EPA/DPH in cholesterol-enriched membrane prepared in the absence and presence of atorvastatin. […] To ensure spectrophotometric readings within the optimum absorbance range, sample volumes taken for measurement of lipid peroxide formation were adjusted for length of peroxidation and range between 100 and 10 μl. […] Absorbances were measured against a CHOD blank at 365 nm using a Beckman DU-640 spectrophotometer. The CHOD colorimetric assay is based on the oxidation of iodide (I^-) by lipid hydroperoxides (LOOH) and proceeds according to the following reaction scheme: […]3^- The quantity of triiodide anion (I3^-) liberated in this reaction is directly proportional to the amount of lipid hydroperoxides present in the membrane sample. […]

SMILES: CCC=CCC=CCC=CCC=CCC=CCCCC(=O)O [EPA, eicosa-5,8,11,14,17-pentaenoic acid]
- antioxidant benefit compared with DHA (EPA and DHA each tested at 10.0 uM): superior to that observed with DHA
- antioxidant benefit (lipid peroxide (LOOH) formation) (autoxidation at 37° C., EPA tested at 10.0 uM): potent antioxidant benefit
